Measured values: patent US20230407098A1, “METHOD FOR EVALUATING CYSTINE UPTAKE ABILITY OF CELL, KIT FOR EVALUATING CYSTINE UPTAKE ABILITY OF CELL, METHOD FOR DETERMINING SELENOCYSTEINE, AND KIT FOR DETERMINING SELENOCYSTEINE” (DOJINDO LABORATORIES, priority 2021, published 2023)

Tests used:
HeLa cells = assay: Ability to take selenocystine into cells (FOdA/TCEP fluorescence measurement); assay type: cell-based, human; details: selenocystine at concentrations in cystine-free DMEM, 30 minutes, FIG. 2
Description: DMEM (cystine-free) was added to HeLa cells, and the cells were incubated in a CO2 incubator (37° C.) for 5 minutes. After the removal of the supernatant, DMEM (cystine-free) containing selenocystine at concentrations was added, and the cells were incubated in the CO 2 incubator (37° C.) for 30 minutes. After removing the supernatant, the cells were washed with PBS three times and then lysed with methanol. Then, 100 mM MES at a pH of 6 containing 10 μM FOdA and 200 μM TCEP was added, and the mixture was incubated at 37° C. for 30 minutes. The fluorescence intensity of each solution was then measured with a plate reader (Infinite(R) 200 PRO, excitation wavelength: 485 nm, fluorescence wavelength: 535 nm).

cystine transporter = biological target: T1, cystine transporter (Homo sapiens, UniProt Q9UPY5); assay: Inhibition of selenocystine uptake by cystine transporter inhibitor; assay type: cell-based; details: HeLa cells, with cystine transporter inhibitor (sulfasalazine or erastin); FIG. 3
T1 construct: endogenous in cells; host or cells: HeLa cells
T1 sequence (Q9UPY5 1-501): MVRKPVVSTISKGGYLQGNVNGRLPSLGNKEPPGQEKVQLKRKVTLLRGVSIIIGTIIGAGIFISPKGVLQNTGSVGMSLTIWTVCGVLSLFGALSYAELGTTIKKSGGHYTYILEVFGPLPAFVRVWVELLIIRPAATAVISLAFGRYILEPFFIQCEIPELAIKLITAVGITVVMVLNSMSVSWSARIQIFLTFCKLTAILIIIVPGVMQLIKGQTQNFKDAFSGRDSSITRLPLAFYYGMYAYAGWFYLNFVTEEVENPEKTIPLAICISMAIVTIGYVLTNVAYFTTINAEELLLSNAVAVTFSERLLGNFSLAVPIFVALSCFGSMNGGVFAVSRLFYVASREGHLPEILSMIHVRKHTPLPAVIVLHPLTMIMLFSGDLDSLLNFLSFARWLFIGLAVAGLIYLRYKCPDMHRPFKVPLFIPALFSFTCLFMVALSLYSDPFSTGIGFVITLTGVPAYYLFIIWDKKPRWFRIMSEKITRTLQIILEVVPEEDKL
T1 sequence (P08195 1-529 partner): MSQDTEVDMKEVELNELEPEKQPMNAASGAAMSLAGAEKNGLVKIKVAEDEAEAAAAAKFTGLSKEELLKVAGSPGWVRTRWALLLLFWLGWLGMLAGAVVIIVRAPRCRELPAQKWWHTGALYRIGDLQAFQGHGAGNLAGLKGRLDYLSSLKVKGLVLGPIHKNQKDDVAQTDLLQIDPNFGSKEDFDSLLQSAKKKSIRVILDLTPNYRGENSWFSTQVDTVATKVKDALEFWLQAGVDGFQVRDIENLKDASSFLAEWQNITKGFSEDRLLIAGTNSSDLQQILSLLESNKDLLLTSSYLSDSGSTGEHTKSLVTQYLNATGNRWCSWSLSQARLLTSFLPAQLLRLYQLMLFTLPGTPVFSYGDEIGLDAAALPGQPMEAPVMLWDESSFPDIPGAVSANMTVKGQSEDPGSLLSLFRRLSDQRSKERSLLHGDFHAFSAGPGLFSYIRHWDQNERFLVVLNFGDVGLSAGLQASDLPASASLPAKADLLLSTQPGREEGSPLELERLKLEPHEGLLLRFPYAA
Description: DMEM (cystine-free) containing a cystine transporter inhibitor (sulfasalazine or erastin) was added to HeLa cells, and the cells were incubated in the CO2 incubator (37° C.) for 5 minutes. DMEM (cystine-free) containing 200 μM selenocystine was then added, and the cells were incubated in the CO2 incubator (37° C.) for 30 minutes. After removing the supernatant, the cells were washed with PBS three times and lysed with methanol. Then, 100 mM MES at a pH of 6 containing 10 μM FOdA and 200 μM TCEP was added, and the cells were incubated at 37° C. for 30 minutes. The fluorescence intensity of each solution was then measured with a plate reader (Infinite(R) 200 PRO, excitation wavelength: 485 nm, fluorescence wavelength: 535 nm).

For `N[C@@H](C[Se][Se]C[C@H](N)C(=O)O)C(=O)O` [selenocystine], the “fluorescence intensity (selenocystine taken up by the cells)” value (HeLa cells) was “increased depending on the concentration of selenocystine” and the “route of selenocystine uptake” value (cystine transporter) was “taken through cystine transporter”.
